From patent US20020193351A1, “Fungicidal and bactericidal compositions for plants containing phosphonate and phosphate salts, metal chelates, and derivatives thereof” (priority 1996, published 2002)
Like-named read-outs stand apart in the source and are kept apart here.

Assays:
[1] = test system: Citrus Greasy Spot perithecia; test: Citrus Greasy Spot perithecia count on Valencia orange leaves (Example 2); assay type: in vivo, Mycosphaerella citri; details: for #PERITHECIA (Number of Perithecia Per 5 MM Field at 2.5×, Mean of Three Observations): applied mid-July, leaves harvested approximately 4 months later
Procedure: In the present Example, fungicides were again tested on “Valencia” oranges except the effect of various fungicides on perithecia was tested.
Twenty mature leaves (from the spring flush) per replicate were harvested approximately 4 months later and placed under greenhouse conditions and alternately wetted and dried to simulate natural defoliation and weathering.
These conditions, in turn, cause the fungus to sporulate by the formation of perithecia (spore production body of fungus). The […] were counted as a means of measuring the fungicidal activity of the treatments.
Number of Perithecia Per 5 MM Field at 2.5×—Mean of Three Observations
As used herein, a, b, c, and ab indicate statistical significance using Duncan's multiple range test. In interpreting the data, a different notation, e.g. b versus ab, means there was a statistically significant difference in the results. A difference in data of samples with the same letter notation was not statistically significant.

[2] = test system: Oak Leaf Blister (Taphrina Caerulescens); test: Oak Leaf Blister control on laurel oaks (Example 5); assay type: in vivo; details: for DISEASE INDEX: applications in July approximately 3 weeks apart, rated in August, index 1 = no disease to 5 = dead foliage
Description: Applications were made in July approximately 3 weeks apart and rated in August a month later. See data below.

plants = details: foliar applications; cited from earlier work
[3] = test system: Phytophthora infestans (Genotype US-8, Matingtype A2); assay type: in vivo; details: for LESIONS PER PLANT / NO. INFECTED LEAFLETS PER PLANT / % LATE BLIGHT: potato, read seven days after inoculation; for % LATE BLIGHT: two treatments 7 days apart, inoculated 7 days later
[4] = test system: Phytophthora infestans (Genotype US-17, Matingtype A1); assay type: in vivo; details: tomato; 1% v/v; read seven days after inoculation
Alternaria dauci = test: Carrot/Alternaria fungicide trial (Example 10); details: for AVERAGE % OF INFECTION 04/23/96 / AVERAGE % OF INFECTION 04/05/96: 8 applications; for AVERAGE % OF INFECTION 04/23/96: 25 days after last application; for AVERAGE % OF INFECTION 04/05/96: seven days after last treatment; for Alternaria control on carrots, verdict: Example 10, comment on the table
Procedure: In the present example, carrots were inoculated with the Alternaria fungus. The carrots were then treated with the below listed fungicidal compositions. Also a control test was conducted. The percentage of the fungicide in the solution is also listed below along with the results. Plot size for testing was a single row of 25 feet by 4 repetitions in an RCB design. The fungicide was applied eight (8) times with the carrots then examined for infection seven (7) days and twenty-five (25) days after the last fungicidal treatment.
PLOT SIZE: Single Row×25 ft.×4 reps in a RCB design. Application dates: 2/2, 9,15,22,3/8,14,22, and 28. Rated 4/5 and 4/23/96
NOTE: Second rating was 25 days after last fungicide application. Plots were inoculated with Alternaria dauci.

Erwinia chrysanthemi = test: Erwinia control on Hibiscus cuttings, foliar spray (Example 6); assay type: in vivo; details: for AVERAGE % INFECTION: rated one week later
Description: Treatments were allowed to dry for one hour and then placed in a commercial propagation bed under intermittent mist and rated for bacterial (Erwinia chrysanthemi) infection one week later.

Erwinia = Erwinia control on Hibiscus rooted cuttings, dip and spray (Example 7); assay type: in vivo, Erwinia chrysanthemi; details: for AVERAGE % INFECTION: dip, then foliar spray 7 days later
Procedure: A follow-up experiment to Example 6 was conducted on rooted cuttings which were dipped as they were removed from the propagation bed and foliarly sprayed 7 days later after being potted. […] Potted cuttings had not received any previous bactericide treatments prior to potting.

[5] = test system: bacterial spots on pepper plants; assay type: in vivo; details: weekly applications; g AI/liter: copper+mancozeb 2+1, Cu-EDDHA 0.1, CGA-143268 1.0, other CGA compounds 0.25 and 0.5
Xanthomonas campestris = test: Xanthomonas leaf spot of croton Codiaeum variegatum (Example 9); assay type: in vivo; details: for AVERAGE % OF INFECTION: 3 weekly foliar applications after inoculation
Procedure: Croton plants inoculated with Xanthomonas were tested with various fungicides. […] AI/100 gal. and Kocide 101 at 7.4 lbs. AI/Acre (A) were applied as foliar applications to croton (Codiaeum variegatum) previously inoculated with Xanthomonas campestris a day earlier. Treatments were assigned in a RCB design and replicated 10 times with single pots. Treatments were applied 3 times on a weekly schedule and evaluated at 7 and 14 days following the last application. See data below.

[6] = 1 gal. (0.55 wt. % AI)/100 gallons
[7] = 1 gal. (0.53 wt. % AI)/100 gallons

Compound: CC1COC(Cn2cncn2)(c2ccc(Oc3ccc(Cl)cc3)cc2Cl)O1 (stereo not shown) [Difenconazole, 1-2[2-[4-(4-chlorophenoxy)-2-chlorophenyl-(4-methyl-1,3-dioxolan-2-l)-methyl]]-1H-1 ,2,4-triazole, reference compound]
- #PERITHECIA (Number of Perithecia Per 5 MM Field at 2.5×, Mean of Three Observations) ([1]; rate 100 gm AI/100 gallons): 5.32 ab
- #PERITHECIA (Number of Perithecia Per 5 MM Field at 2.5×, Mean of Three Observations) ([1]; rate 200 gm AI/100 gallons): 11.57 ab
- DISEASE INDEX ([2]; 2 oz. product/100 gallons): 2.25

Compound: O=C([O-])CN(CCN(CC(=O)[O-])CC(=O)[O-])CC(=O)[O-].[Fe+3] [Fe-EDTA, Fe-EDTA (ethylenediaminetetraacetic acid)]
- Phytotoxicity rankings of Fe chelates (plants): intermediate phytotoxic

Compound: O=C([O-])CN(CCO)CCN(CC(=O)[O-])CC(=O)[O-].[Fe+3] [Fe-HEEDTA, Fe-HEEDTA (hydroxyethylethylenediaminetriacetic acid)]
- Phytotoxicity rankings of Fe chelates (plants): most phytotoxic

Compound: O=[PH]([O-])[O-].[K+].[K+] [Sample K2HPO3]
- Potato late blight control, verdict ([3]; Example 11, comment on the table): good results in controlling the blight
- LESIONS PER PLANT ([3]; 1% v/v): 2.4
- NO. INFECTED LEAFLETS PER PLANT ([3]; 1% v/v): 1.8
- % LATE BLIGHT ([3]; 1% v/v): 1.85%
- LESIONS PER PLANT [4]: 56.7
- NO. INFECTED LEAFLETS PER PLANT [4]: 21.5
- AVERAGE % OF INFECTION 04/23/96 (Alternaria dauci; [6]): 28.8%
- AVERAGE % OF INFECTION 04/05/96 (Alternaria dauci; [6]): 18.7%

Compound: O=P([O-])([O-])O.[K+].[K+] [Sample K2HPO4, dipotassium phosphate]
- LESIONS PER PLANT ([3]; 1% v/v): 41.4
- NO. INFECTED LEAFLETS PER PLANT ([3]; 1% v/v): 31.1
- % LATE BLIGHT ([3]; 1% v/v): 18.45%
- LESIONS PER PLANT [4]: 74.8
- NO. INFECTED LEAFLETS PER PLANT [4]: 36.5
- AVERAGE % OF INFECTION 04/23/96 (Alternaria dauci; [7]): 8.2%
- AVERAGE % OF INFECTION 04/05/96 (Alternaria dauci; [7]): 6.9%

Compound: Fe-DTPA (di-ethylenetriaminepentaacetic acid)
- Phytotoxicity rankings of Fe chelates (plants): less phytotoxic

Compound: Sodium cupric ethylenediamine-di-o-hydroxyphenylacetic acid [Cu-EDDHA]
- Perithecia reduction, verdict ([1]; Example 2, comment on the table): good results
- #PERITHECIA (Number of Perithecia Per 5 MM Field at 2.5×, Mean of Three Observations) ([1]; rate 0.2 lbs. AI/100 gallons): 3.24 b
- #PERITHECIA (Number of Perithecia Per 5 MM Field at 2.5×, Mean of Three Observations) ([1]; rate 0.4 lbs. AI/100 gallons): 5.93 ab
- DISEASE INDEX ([2]; 8 oz. product/100 gallons): 2.8
- Oak leaf blister repression, verdict ([2]; Example 5, comment on the table): suitable disease repression
- Control of Erwinia on Hibiscus, verdict (Erwinia chrysanthemi; 0.2 lb. AI): excellent control
- AVERAGE % INFECTION (Erwinia chrysanthemi; 0.2 lb. AI Cu/100 gallons foliar spray): 6%
- AVERAGE % INFECTION (Erwinia chrysanthemi; 0.4 lb. AI Cu/100 gallons foliar spray): 8%
- AVERAGE % INFECTION (Erwinia; 0.2 LB. AI/100 gallons): 19%
- Control of Erwinia on Hibiscus, verdict (Erwinia; 0.2 lb. AI): excellent control
- AVERAGE % INFECTION (Erwinia; 0.8 LB. AI/100 gallons): 32%
- Disease severity ranking 12 days after the last (eighth) application [5]: exhibited some control
- Disease severity ranking after four applications [5]: CGA-143268 which was equal to copper plus mancozeb and Cu-EDDHA in activity
- AVERAGE % OF INFECTION (Xanthomonas campestris; 26 ml (.2 lb.) AI/100 gallons): .6%
- AVERAGE % OF INFECTION (Xanthomonas campestris; 52 ml (.4 lb.) AI/100 gallons): 1.0%
- Control of Xanthomonas leaf spot of Codiaeum (Xanthomonas campestris; compared to inoculated and noninoculated controls, Cu-EDDHA at the lower rate): control equal to the noninoculated control treatment
- LESIONS PER PLANT ([3]; 0.2 lb. AI/acre): 35.3
- NO. INFECTED LEAFLETS PER PLANT ([3]; 0.2 lb. AI/acre): 26.9
- % LATE BLIGHT ([3]; 0.2 lb. AI/acre): 12.30%
- AVERAGE % OF INFECTION 04/23/96 (Alternaria dauci; 0.2 lb AI/100 gallons): 11.6%
- AVERAGE % OF INFECTION 04/05/96 (Alternaria dauci; 0.2 lb AI/100 gallons): 8.8%
- Alternaria control on carrots, verdict (Alternaria dauci): effectively limited percentage of fungicidal infection

Compound: iron ethylenediamine-di-o-hydroxyphenylacetic acid [Fe-EDDHA]
- AVERAGE % OF INFECTION 04/23/96 (Alternaria dauci; 0.2 lb AI/100 gallons): 12.9%
- AVERAGE % OF INFECTION 04/05/96 (Alternaria dauci; 0.2 lb AI/100 gallons): 12.7%
- Alternaria control on carrots, verdict (Alternaria dauci): effective fungicides
